Measurements: patent US8629163B2, “Tetrakis-quaternary ammonium salts and methods for modulating neuronal nicotinic acteylcholine receptors” (University of Kentucky Research Foundation, priority 2007, dated 2014)

Columns and labels:
[1] = molecular target: T1, α7-type neuronal nicotinic acetylcholine receptors (Rattus norvegicus, UniProt Q05941); assay: Inhibition of [^3H]methyllycaconitine (MLA) binding to rat brain membranes; conditions: % inhibition at 100 nM analog; 3 nM [^3H]MLA; nonspecific 10 μM nicotine; 3-4 independent experiments
T1 construct: The brain tissue was homogenized with a Tekmar Polytron; from tissue; host or cells: rat brain membranes (whole brain without cortex and cerebellum)
T1 sequence (Q05941 23-502): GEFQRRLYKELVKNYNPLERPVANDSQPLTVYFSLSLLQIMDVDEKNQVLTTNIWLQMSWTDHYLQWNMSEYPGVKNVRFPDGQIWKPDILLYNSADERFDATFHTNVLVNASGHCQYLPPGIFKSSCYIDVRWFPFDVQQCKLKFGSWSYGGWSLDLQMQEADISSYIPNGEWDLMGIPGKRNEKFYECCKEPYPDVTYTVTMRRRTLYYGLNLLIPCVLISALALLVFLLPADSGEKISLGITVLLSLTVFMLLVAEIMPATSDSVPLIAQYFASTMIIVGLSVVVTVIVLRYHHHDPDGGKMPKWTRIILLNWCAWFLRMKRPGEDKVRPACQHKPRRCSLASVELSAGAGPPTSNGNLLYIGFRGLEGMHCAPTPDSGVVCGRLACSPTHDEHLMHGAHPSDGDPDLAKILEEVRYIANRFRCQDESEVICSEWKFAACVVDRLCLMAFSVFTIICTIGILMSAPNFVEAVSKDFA
Description: (§1) Rat brain was dissected into the whole brain tissue without cortex and cerebellum and was frozen in liquid nitrogen and stored at −70° C. until use. The brain tissue was homogenized with a Tekmar Polytron (setting 40) in 20 volumes of ice-cold hypotonic buffer (2 mM HEPES, 14.4 mM NaCl, 0.15 mM KCl, 0.2 mM CaCl2 and […], pH=7.5). The homogenate was centrifuged at 25,000×g for 17 minutes at 4° C. The pellet was resuspended in 20 volumes of the same buffer, and incubated for 10 min at 37° C. The resuspension was cooled to 4° C. and then centrifuged at the above parameters. The pellet was resuspended by sonicaton and centrifuged using the same conditions. The final pellet was stored at −20° C. under 10 ml of the incubation buffer and was suspended just before incubation with radioligand.
(§2) The binding of [^3H]NIC and [^3H]MLA to probe α4β2 and α7-type neuronal nicotinic acetylcholine receptors, respectively, was determined using [^3H]NIC (67 Ci/mmol) and [^3H]MLA (60 Ci/mmol), purchased from Perkin Elmer Life Sciences, Boston, Mass., U.S.A. and American Radiolabel Chemicals, Inc., St. Louis, Mo., U.S.A. Binding was performed in duplicate, in a final volume of 250 μl of the incubation medium, containing 20 mM HEPES, 144 mM NaCl, 1.5 mM KCl, 2 mM CaCl2, and 1 mM MgSO4, pH=7.5. Reaction was initiated by the addition of 100 μL of membrane suspension to the samples containing a desired concentration of test compounds and 3 nM [^3H]NIC or 3 nM [^3H]MLA (final concentrations) and incubated for 60 min at room temperature. Total binding was measured in the absence of unlabelled ligand and nonspecific binding was determined in the presence of 10 μM cytisine, for [^3H]NIC binding, and 10 μM nicotine for [^3H]MLA. The binding reaction was terminated by dilution of samples with 3 mL of ice-cold incubation buffer followed by immediate filtration through Unifilter-96 GFB-filter plates presoaked in 0.5% polyethylenimine using a Filtermate Harvester (Perkin Elmer, Shelton, Conn., U.S.A.). Filters were rinsed five times with 350 μL of ice-cold buffer, and then filter plates were dried at 48° C. for 60 min, bottom sealed and each well filled with 40 μL of Packard Microscint-20 cocktail. After 60 min of gentle shaking, the filter plates were top sealed and radioactivity measured using a Packard TopCount NXT scintillation counter. CPMs were processed through a Packard Windows NT operating system. Protein was measured using the Bradford dye-binding procedure with bovine serum albumin as the standard.
(§3) The ability of a probe concentration of 100 nM of the tetrakis-quaternary ammonium salts to inhibit specific binding was evaluated.
(§4) ^aData are % inhibition at 100 nM concentration of analog for 3-4 independent experiments. Specific binding in the [^3H]NIC binding assay is calculated as the difference between the total binding of 3 nM [^3H]NIC and nonspecific binding in the presence of 10 μM cytisine. Specific binding for the [^3H]MLA binding assay is calculated as the difference between the total binding of 3 nM [^3H]MLA to the receptors alone and its nonspecific binding in the presence of 10 μM nicotine. Analog-induced inhibition of nicotine-evoked [^3H]DA release is calculated as a percent of that in the absence of analog.

rat striatal slices = assay: Nicotine-evoked [^3H]dopamine release (overflow) from superfused rat striatal slices; type: cell-based; conditions: % inhibition at 100 nM analog; 10 μM S(-)nicotine; rat striatal slices; read-out: Inhibition of Nicotine-evoked [^3H]DA release
Description: Rat striatal slices (500 μm thickness, 6 mg wet weight) were incubated for 30 minutes in Krebs buffer (118 mM NaCl, 4.7 mM KCl, 1.2 mM MgCl2, 1.0 mM NaH2PO4, 1.3 mM CaCl2, 11.1 mM glucose, 25 mM NaHCO3, 0.11 mM L-ascorbic acid, and 0.004 mM disodium EDTA; pH 7.4, and saturated with 95% O2/5% CO2) in a metabolic shaker at 34° C. Slices were rinsed with 15 mL of fresh buffer and incubated for an additional 30 minutes in fresh buffer containing 0.1 μM [^3H]dopamine (DA; 6 slices/3 mL). Subsequently, slices were rinsed with 15 mL of fresh buffer and each slice transferred to a superfusion chamber. Slices were superfused (0.6 mL/min) for 60 minutes with Krebs buffer containing nomifensine (10 μM) and pargyline (10 μM) and maintained at 34° C., pH 7.4, with continual aeration (95% O2/5% CO2). Two 4-minute samples (2.4 mL each) were collected to determine basal outflow of [^3H]DA. Slices were superfused for 36 min following addition of the analogs to the superfusion buffer after the collection of the second sample and nine 4-minute samples were collected. For initial probe assays, the concentration of analog was 100 nM. For concentration-response studies, the concentration of analog varied from 1 nM to 10 μM, and the effect of each concentration was determined using striatal slices obtained from an individual animal (repeated measures design). Subsequently, S(−)nicotine (10 μM) was added to the buffer and nine additional 4-minute samples were collected. At the end of the experiment, each slice was solubilized and the [^3H] content of the tissue determined.
Radioactivity in the superfusate and tissue samples was determined by liquid scintillation spectroscopy. Fractional release for tritium collected in each sample was divided by the total tritium present in the tissue at the time of sample collection and was expressed as a percentage of total tritium. Basal [^3H]outflow was calculated from the average of the tritium collected in the two […] samples just before addition of the analog. The sum of the increase in collected tritium resulting from either exposure to the test compound or exposure to S(−)nicotine in the absence and presence of the test compound equaled total [^3H]overflow. [^3H]Overflow was calculated by subtracting the [^3H]outflow during an equivalent period of prestimulation from the values in samples collected during and after drug exposure. Inasmuch as the radiolabelled compounds were not separated and identified, the tritium collected in superfusate is referred to as either [^3H]outflow or [^3H]overflow, rather than as [^3H]DA. [^3H]Overflow primarily represents [^3H]DA in the presence of nomifensine and pargyline in the superfusion buffer. […]
Analogs were also evaluated for their ability to inhibit NIC evoked [^3H]DA release. Antagonist activity was evaluated by comparing the NIC-evoked [^3H]overflow in the absence and presence of the analogs (see Table 1). […] Data are expressed as M±SEM. Control represents absence of compound. N=4/analog, *p<0.05
as §4
^bIC50 from full concentration response assay; data from 4-5 independent experiments, each performed in duplicate.

[2] = molecular target: T2, α4β2 neuronal nicotinic acetylcholine receptors (Rattus norvegicus, UniProt P09483+P12390); assay: Inhibition of [^3H]nicotine (NIC) binding to rat brain membranes; conditions: % inhibition at 100 nM analog; 3 nM [^3H]NIC; nonspecific 10 μM cytisine; 3-4 independent experiments
T2 construct: The brain tissue was homogenized with a Tekmar Polytron; from tissue; host or cells: rat brain membranes (whole brain without cortex and cerebellum)
T2 sequence (P09483 31-630): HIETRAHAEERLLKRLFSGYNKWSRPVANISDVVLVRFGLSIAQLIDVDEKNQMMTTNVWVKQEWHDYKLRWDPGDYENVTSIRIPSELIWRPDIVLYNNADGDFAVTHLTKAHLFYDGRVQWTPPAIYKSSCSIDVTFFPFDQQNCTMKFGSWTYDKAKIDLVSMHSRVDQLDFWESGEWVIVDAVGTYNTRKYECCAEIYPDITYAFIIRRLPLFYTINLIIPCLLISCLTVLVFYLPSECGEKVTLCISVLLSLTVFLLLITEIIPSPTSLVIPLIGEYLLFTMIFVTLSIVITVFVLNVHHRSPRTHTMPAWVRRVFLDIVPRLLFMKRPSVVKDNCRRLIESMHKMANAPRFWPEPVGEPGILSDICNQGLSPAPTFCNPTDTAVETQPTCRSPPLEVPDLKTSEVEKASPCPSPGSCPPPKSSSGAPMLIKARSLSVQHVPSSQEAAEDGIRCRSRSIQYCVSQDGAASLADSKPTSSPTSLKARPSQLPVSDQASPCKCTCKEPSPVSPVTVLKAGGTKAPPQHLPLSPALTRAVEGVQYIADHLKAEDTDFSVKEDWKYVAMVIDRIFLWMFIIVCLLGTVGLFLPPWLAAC
T2 sequence (P12390 25-500): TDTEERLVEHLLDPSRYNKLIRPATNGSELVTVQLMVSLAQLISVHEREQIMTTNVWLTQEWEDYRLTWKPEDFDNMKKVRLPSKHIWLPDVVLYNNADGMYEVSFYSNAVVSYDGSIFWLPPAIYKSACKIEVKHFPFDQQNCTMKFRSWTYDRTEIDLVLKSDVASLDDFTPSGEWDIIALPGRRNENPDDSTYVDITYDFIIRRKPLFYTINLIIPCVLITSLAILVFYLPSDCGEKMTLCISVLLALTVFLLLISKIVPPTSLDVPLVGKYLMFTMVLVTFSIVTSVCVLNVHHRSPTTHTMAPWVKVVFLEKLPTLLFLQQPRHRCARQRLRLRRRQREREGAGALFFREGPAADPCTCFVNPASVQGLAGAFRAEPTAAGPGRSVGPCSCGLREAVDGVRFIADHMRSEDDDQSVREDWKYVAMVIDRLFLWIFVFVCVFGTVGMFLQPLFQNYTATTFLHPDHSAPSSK
Description: as §1, §2, §3, §4

[3] = molecular target: T1, α7-type neuronal nicotinic acetylcholine receptors; assay: Inhibition of [^3H]methyllycaconitine (MLA) binding to rat brain membranes

C(#Cc1cc(C#CCCC[n+]2ccc3ccccc3c2)c(C#CCCC[n+]2ccc3ccccc3c2)cc1C#CCCC[n+]1ccc2ccccc2c1)CCC[n+]1ccc2ccccc2c1.[Br-].[Br-].[Br-].[Br-]
Inhibition of [^3H]MLA binding [1]: 4.9 ± 3.8% | inhibition at 0.1 µM (rat striatal slices): 39 ± 17% | Inhibition of [^3H]Nicotine binding [2]: 0 ± 0%

Cc1cc[n+](CCCC#Cc2cc(C#CCCC[n+]3ccc(C)cc3)c(C#CCCC[n+]3ccc(C)cc3)cc2C#CCCC[n+]2ccc(C)cc2)cc1.[Br-].[Br-].[Br-].[Br-]
Inhibition of [^3H]MLA binding [1]: 3.0 ± 3.0% | inhibition at 0.1 µM (rat striatal slices): 35 ± 14% | Inhibition of [^3H]Nicotine binding [2]: 24 ± 5.5%

OCCCc1ccc[n+](CCCC#Cc2cc(C#CCCC[n+]3cccc(CCCO)c3)c(C#CCCC[n+]3cccc(CCCO)c3)cc2C#CCCC[n+]2cccc(CCCO)c2)c1.[Br-].[Br-].[Br-].[Br-]
Inhibition of [^3H]MLA binding [1]: 5.7 ± 5.7% | inhibition at 0.1 µM (rat striatal slices): 41 ± 15% | Inhibition of [^3H]Nicotine binding [2]: 0 ± 0%

α-bungarotoxin
Ki [3]: 28.6 ± 5.4 nM
